# Measurements from US9487749B2 (priority 2009, dated 2016).
# Read-outs that look alike come from different tables or passages of the source.
# Key:
# [1] = system: Streptococcus Pyogenes (Lancefield group A); conditions: 18 h
# Streptococcus Pneumonia = conditions: Streptococcus pneumoniae, 7 h
compound,measurement,setting,value
"C[S+](C)[O-] [DMSO, Dimethyl sulfoxide]",S. pyogenes viability (%),[1]; 5 %,96.66%
same,Viability of S. pyogenes (%),[1]; 5 %,96.66%
same,S. pyogenes viability (%),[1]; 8 %,9.96%
same,Viability of S. pyogenes (%),[1]; 10 %,14.50%
same,Viability of S. pyogenes (%),[1]; 20 %,5.14%
same,Viability of S. pneumonia,Streptococcus Pneumonia; 5 %,75.45%
same,Viability of S. pneumonia,Streptococcus Pneumonia; 10 %,40.18%
